Source: patent US20060153897A1, “Zinc-containing foods” (priority 2001, published 2006)

How the values were obtained:
[1] = test system: female and male rats; experiment: Acute toxicity test; format: in vivo; details: female and male rats, 2, 8 and 15 days after administration of 2,000 mg/kg
Method: (§1) Outside the application of GLP, acute toxicity test was carried out for zinc complexes with maltol, picolinic acid, picolinamide, 6-methyl-picolinic acid, L-threonine and L-valine.

[2] = test system: Escherichia coli WP 2 uvr A; experiment: Mutagenicity test (Ames) using microorganisms; format: cell-based; details: compared with solvent control
From the text: (§2) As a mutagenicity test (Ames) using microorganisms, mutation-inducing ability of zinc complexes with maltol, picolinic acid, picolinamide, 6-methyl-picolinic acid, L-threonine and L-valine was examined using Salmonella typhimurium TA 100, TA 1535, TA 98 and TA 1537 and Escherichia coli WP 2 uvr A.

[3] = test system: Salmonella typhimurium TA 100, TA 1535, TA 98 and TA 1537; experiment: Mutagenicity test (Ames) using microorganisms; format: cell-based; details: for mutation-inducing ability: Salmonella typhimurium TA 100, TA 1535, TA 98, TA 1537, compared with solvent control; for growth inhibition: high concentrations
From the text: as §2

[4] = Acute toxicity test; format: in vivo; details: rat, in vivo
Method: as §1

[5] = ligand per se, strain not stated

Compound | change in normal state and autopsy compared with solvent control group [1] | mutation-inducing ability [2] | mutation-inducing ability [3] | growth inhibition [3, 5] | also measured
Cc1cccc(C(=O)[O-])n1.Cc1cccc(C(=O)[O-])n1.[Zn+2] [bis(6-methylpicolinic acid)/zinc complex] | no special change | no mutation-inducing ability | no mutation-inducing ability | – | –
Cc1occc(=O)c1O [maltol, reference compound] | – | – | – | growth inhibition at high concentrations | LD50 at 15 days ([4]; female): 1590 mg/kg; LD50 at 15 days ([4]; male): 1680 mg/kg
O=C(O)c1ccccn1 [picolinic acid, reference compound] | – | – | – | growth inhibition at high concentrations | –
CC(C)[C@H](N)C(=O)[O-].CC(C)[C@H](N)C(=O)[O-].[Zn+2] [zinc complex with L-valine] | no special change | no mutation-inducing ability | no mutation-inducing ability | – | –
O=C([O-])c1ccccn1.O=C([O-])c1ccccn1.[Zn+2] [zinc complex with picolinic acid] | no special change | – | very weakly positive | – | growth inhibition ([3]; TA 98, TA 1537 strains): growth inhibition at high concentrations
bis(maltol)/zinc complex [zinc complex with maltol] | – | – | very weakly positive | – | growth inhibition ([3]; TA 1535 strain): growth inhibition at high concentrations
